Test results: EP2228050A1, “Use of gamma-aminobutyric acid as a depigmenting agent” (priority 2009, dated 2010)
Several values for one entry are separate records, joined by “and”; a condition that tells them apart may be missing. Equal entries are not always repeated. Where two headings read alike, the source gives them in different places.

Experiments:
[1] = tested on: mélanocytes humains normaux; test: Cytotoxicity: viability of melanocytes by spectrophotometric assay of intracellular phosphatase activity (p-nitrophenyl phosphate, 405 nm)
Experimental: On effectue la détermination sur des mélanocytes humains normaux obtenus à partir d'un sujet jeune (4 ans). Pour les réalisations des essais, les cellules ont été cultivées jusqu'à l'obtention de mono couches confluentes.
Les cellules ont mises en incubation pendant 72 heures en l'absence (essai témoin) ou en présence de concentrations croissantes de composé E ou de chacun des produits essayés. Pour le composé E, on a essayé des concentrations de 0.003; 0.03; 0.075; 0.15; 0.5; 0.75; 1.5 et 3% (v/v) et pour le produit selon l'invention : 0.01; 0.1; 0.25; 0.5; 1; 2.5; 5; 10% (v/v).
A titre de comparaison, on a préparé une solution à 10% d'acide kojique et une solution d'acide lactique à 30% (composition E).
Les préparations essayées ont été ensuite diluées directement dans le milieu d'incubation des mélanocytes.
A la fin de la période d'incubation, la viabilité des cellules a été évaluée par une méthode spectrophotométrique de dosage de l'activité des phosphatases intracellulaires.
Selon la méthode de Yan T. et al. (Anal. Biochem. 24 (1996) 103-108), on dose le p-nitrophénol résultant de la transformation du phosphate de p-nitrophényle par les phosphatases intra-cellulaires des cellules viables.
L'absorbance du p-nitrophénol libéré à 405 nm est directement proportionnelle au nombre des cellules viables présentes dans le puits de culture.

[2] = tested on: mélanocytes humains normaux; test: Melano-modulating effect: intracellular melanin / protein ratio in monolayer melanocytes (step 1 single actives, step 2 complex); type: cell-based; conditions: 72 h
Experimental: Ces essais ont été menés sur un modèle de mélanocytes humains normaux cultivés en mono couche.
Les mélanocytes humains normaux ont été mis en incubation pendant 72 heures en l'absence (témoin) ou en présence d'un produit de référence (acide kojique 250 µM)) ou de concentrations croissantes des produits actifs essayés.
Dans cette méthode, on dose le rapport mélanine/protéines en pourcentage du témoin. On a déterminé également les valeurs obtenues avec le solvant seul et une solution d'acide kojique à 250 µM dans ce solvant(DMSO) pris comme substance de référence.
Tableau II Véhicule (DMSO) et produit de référence
On a utilisé des mélanocytes humains normaux issus d'un sujet jeune âgé de 4 ans. On les a cultivé en monocouche jusqu'à confluence de 80%.
On a employé comme inhibiteur de tyrosinase de référence, l'acide kojique à 250 µM.
Les mélanocytes ont été mis en incubation pendant 72 heures à 37°C sous atmosphère humide et sous 5% de CO2 en l'absence (témoin) ou en présence d'acide kojique ou de concentrations croissantes de principes actifs à l'essai (0.1; 0.5 1%)
A la fin de la période d'incubation, le contenu intracellulaire en mélanine a été quantifié après lyse cellulaire par mesure spectrophotométrique à 405nm.
A la fin de la période d'incubation, les protéines contenues dans les lysats cellulaires ont été dosés par une méthode spectrocolorimétrique faisant appel au bleu de Coomassie (selon la méthode de Bradford M. Anal. Biochem. 72 (1976) 248-254).
Les résultats sont donnés sous forme de pourcentage de mélanine par rapport aux témoins (moyenne + ou- déviation standard SD) calculés à partir de valeurs obtenues en µg de mélanine intracellulaire par mg de protéines totales du tapis cellulaire.
On a déterminé la significativité statistique des différences constatées entre les conditions des « témoin » et « Produits à l'essai » selon une analyse de variance à un seul facteur (ANOVA) suivi d'un test de Holm-Sidak (* = […] < 0,05)

For `NCCCC(=O)O` [A, acide gamma-aminobutyrique], the “dose à partir de laquelle un effet cytotoxique est détectable” value ([1]; human, 4320 min) was 0.5%.

Work on `O=c1cc(CO)occ1O` [Acide Kojique, acide kojique] yielded an activity at 250 µM ([2]; Melanocyte, step 1, Acide Kojique 250 µM in DMSO, mean, * p<0,05, read-out: mélanine / protéines (% du témoin) Moyenne) of 77.4%, an activity at 250 µM ([2]; Melanocyte, step 2, Acide kojique 250 µM, mean (controls mean 119,2), * p<0,05, read-out: Mélanines/ protéines (% du témoin) Moyenne) of 101% and an activity at 250 µM ([2]; Melanocyte, step 2, Acide kojique 250 µM, mean normalised to controls = 100, read-out: % témoin) of 84.5%. The activity at 250 µM ([2]; Melanocyte, step 2, Acide kojique 250 µM, single replicate (controls mean 119,2), read-out: Mélanines/ protéines (% du témoin)) was 106%, the inhibition at 250 µM ([2]; Melanocyte, step 2, acide kojique 250 µM, p < 0.05, read-out: réduction du contenu intracellulaire en mélanine) was 15.5% and the “Mélanines/ protéines (% du témoin)” value ([2]; step 2, Acide kojique 250 µM, single replicate (controls mean 119,2), 4320 min, 250 µM) was 93,2 % du témoin and 102,8 % du témoin and 94,1 % du témoin and 97,9 % du témoin.

For `CC(O)C(=O)O` (centres unmarked) [Actif E, acide lactique], the “dose à partir de laquelle un effet cytotoxique est détectable” value ([1]; 72 h, detectable = less than 80 % viable cells) was 0.03%.
